According to PMC12392461, “Beyond Estrogenicity: A Comparative Assessment of Bisphenol A and Its Alternatives in In Vitro Assays Questions Safety of Replacements” (Environmental Science & Technology, 2025):
Read-outs that look alike come from different tables or passages of the source.

Experiments:
HEK293H (PPARγ) = details: for IC10, linear transformed / IC10, linear / logIC10: PPARγ bioassay cytotoxicity; for IC10, linear: linear model; for logIC10: log-logistic model; for IC10, HEK293, PPARγ: cytotoxicity, HEK293 (PPARγ assay cells)
Procedure, shortened: (§1)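 Cells were seeded in 384-well plates for 24 h, then dosed in 11-step dilutions and exposed for 24 h at 37 °C. Viability came from IncuCyte confluency before and after exposure. Only concentrations below IC10 were used for EC10 or, for ARE, the concentration giving induction ratio 1.5 (ECIR1.5).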

HEK293T (ERα) = details: for IC10, linear transformed / IC10, linear / logIC10: Bioassay ERα, dosing range all; for IC10, linear transformed / IC10, linear / logIC10 / IC10, HEK293, ERα: cytotoxicity; for IC10, linear: linear model fit; for logIC10: log-logistic model fit; for IC10, HEK293, ERα: HEK293 (ERα assay cells)
Procedure, shortened: as §1

H4IIe (AhR CALUX) = details: for IC10, linear transformed / IC10, linear / logIC10: Bioassay AhR, dosing range all; for IC10, linear transformed / IC10, linear / logIC10 / IC10, H4IIe, AhR: cytotoxicity; for IC10, linear: linear model fit; for logIC10: log-logistic model fit; for IC10, H4IIe, AhR: H4IIe (AhR assay cells)
Procedure, shortened: as §1

MCF7 (ARE/MMP) = details: for IC10, linear transformed / IC10, linear / logIC10: dosing range all; for IC10, MCF7, ARE: MCF7, ARE readout; for IC10, MCF7, MMP: MCF7, MMP readout
Procedure, shortened: as §1

[1] = target: T1, Peroxisome proliferator-activated receptor γ (Homo sapiens, UniProt P37231); experiment: cell-based; details: for EC10, PPARγ (M): 10% of maximum effect of rosiglitazone; for EC10, linear transformed / EC10, linear / logEC10: PPARγ bioassay; for EC10, linear: linear model; for logEC10: log-logistic model; for SR-ScorePPARγ: SR-Score, sigma k=1, x=5; for EC10, PPARγ: effect; for log(1/EC10) PPARγ: input of the ToxPi score, values up to 1.00; for Emax: read-out: Emax%PPARγ
T1 sequence (P37231 238-505 limits assumed): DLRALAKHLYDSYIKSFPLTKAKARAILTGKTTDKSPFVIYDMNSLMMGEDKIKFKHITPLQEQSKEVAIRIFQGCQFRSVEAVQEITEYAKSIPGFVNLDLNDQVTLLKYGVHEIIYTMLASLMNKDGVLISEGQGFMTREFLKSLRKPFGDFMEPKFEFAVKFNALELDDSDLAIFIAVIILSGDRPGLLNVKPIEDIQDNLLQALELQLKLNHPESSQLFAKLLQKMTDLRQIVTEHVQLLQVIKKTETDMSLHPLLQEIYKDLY
Procedure, shortened: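 ERα-UAS-bla GripTite and PPARγ-UAS-bla reporter cells were seeded in assay medium with 2% charcoal-stripped FBS and held 24 h at 37 °C before dosing. Viability came from IncuCyte confluency before and after exposure. EC10 used only concentrations below IC10; Emax% is the log-logistic curve maximum relative to the reference chemical.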

[2] = Bioassay ARE, cytotoxicity, linear model fit
[3] = Bioassay ARE, cytotoxicity, log-logistic model fit
[4] = MMP bioassay cytotoxicity, linear model
[5] = MMP bioassay cytotoxicity, log-logistic model

O=S(=O)(c1ccc(O)cc1)c1ccc(OCc2ccccc2)cc1 [BPS-MPE, 4-[4-(benzyloxy)benzenesulfonyl]phenol]
IC10, linear transformed (HEK293H (PPARγ); dosing range high): 9.04E-06 | IC10, linear (HEK293H (PPARγ); dosing range high): 1.34E-04 | logIC10 (HEK293H (PPARγ); dosing range high): -3.96 | IC10, linear transformed (HEK293H (PPARγ); dosing range low): 1.83E-05 | IC10, linear (HEK293H (PPARγ); dosing range low): 1.11E-05 | logIC10 (HEK293H (PPARγ); dosing range low): -5.06 | Toxic ratio (TR) TRPPARγ (HEK293H (PPARγ); against baseline cytotoxicity): 0.09 | IC10, HEK293, PPARγ (HEK293H (PPARγ)): 134 µM | IC10, linear transformed (HEK293T (ERα)): 3.17E-05 | IC10, linear (HEK293T (ERα)): 1.12E-04 | logIC10 (HEK293T (ERα)): -4.00 | Toxic ratio (TR) TRERα (HEK293T (ERα); against baseline cytotoxicity): 0.10 | IC10, HEK293, ERα (HEK293T (ERα)): 112 µM | IC10, linear transformed (H4IIe (AhR CALUX)): 5.80E-05 | IC10, linear (H4IIe (AhR CALUX)): 5.18E-05 | logIC10 (H4IIe (AhR CALUX)): -4.24 | Toxic ratio (TR) TRAhR (H4IIe (AhR CALUX); against baseline cytotoxicity): 0.68 | IC10, H4IIe, AhR (H4IIe (AhR CALUX)): 51.8 µM | IC10, linear transformed (MCF7 (ARE/MMP); Bioassay ARE, cytotoxicity): 7.91E-05 | IC10, linear (MCF7 (ARE/MMP); [2]): 1.19E-04 | logIC10 (MCF7 (ARE/MMP); [3]): -4.10 | IC10, linear transformed (MCF7 (ARE/MMP); MMP bioassay cytotoxicity): 1.23E-04 | IC10, linear (MCF7 (ARE/MMP); [4]): 1.88E-04 | logIC10 (MCF7 (ARE/MMP); [5]): -3.91 | Toxic ratio (TR) TRARE (MCF7 (ARE/MMP); against baseline cytotoxicity, ARE readout): 0.45 | Toxic ratio (TR) TRMMP (MCF7 (ARE/MMP); against baseline cytotoxicity, MMP readout): 0.29 | IC10, MCF7, ARE (MCF7 (ARE/MMP); cytotoxicity): 79.1 µM | IC10, MCF7, MMP (MCF7 (ARE/MMP); cytotoxicity): 123 µM | EC10, PPARγ (M) [1]: 2.35 × 10^–7 M | EC10, linear transformed ([1]; dosing range high): 1.15E-09 | EC10, linear ([1]; dosing range high): 1.01E-07 | logEC10 ([1]; dosing range high): -8.94 | EC10, linear transformed ([1]; dosing range low): 2.35E-07 | EC10, linear ([1]; dosing range low): 4.02E-07 | logEC10 ([1]; dosing range low): -6.63 | SR-ScorePPARγ [1]: 1.00 | Specificity ratio (SRbaseline) SRPPARγ ([1]; against baseline cytotoxicity): 49.84 | Specificity ratio (SRcytotoxicity) SRPPARγ ([1]; against experimental cytotoxicity): 570.13 | EC10, PPARγ [1]: 0.235 µM | log(1/EC10) PPARγ [1]: 0.94 | Emax [1]: 25%

Oc1ccc(Sc2ccc(O)cc2)cc1 [BPT, 4,4'-Thiodiphenol]
IC10, linear transformed (HEK293H (PPARγ); dosing range all): 4.47E-06 | IC10, linear (HEK293H (PPARγ); dosing range all): 2.13E-05 | logIC10 (HEK293H (PPARγ); dosing range all): -4.76 | IC10, HEK293, PPARγ (HEK293H (PPARγ)): 17.4 µM | IC10, linear transformed (HEK293T (ERα)): 4.06E-05 | IC10, linear (HEK293T (ERα)): 2.43E-05 | logIC10 (HEK293T (ERα)): -4.53 | IC10, HEK293, ERα (HEK293T (ERα)): 24.3 µM | IC10, linear transformed (H4IIe (AhR CALUX)): 8.07E-05 | IC10, linear (H4IIe (AhR CALUX)): 5.00E-05 | logIC10 (H4IIe (AhR CALUX)): -4.09 | IC10, H4IIe, AhR (H4IIe (AhR CALUX)): 50 µM | IC10, linear transformed (MCF7 (ARE/MMP); Bioassay ARE, cytotoxicity): 1.75E-04 | IC10, linear (MCF7 (ARE/MMP); [2]): 3.07E-04 | logIC10 (MCF7 (ARE/MMP); [3]): -3.76 | IC10, linear transformed (MCF7 (ARE/MMP); MMP bioassay cytotoxicity): 2.05E-04 | IC10, linear (MCF7 (ARE/MMP); [4]): 2.97E-04 | logIC10 (MCF7 (ARE/MMP); [5]): -3.69 | IC10, MCF7, ARE (MCF7 (ARE/MMP); cytotoxicity): 175 µM | IC10, MCF7, MMP (MCF7 (ARE/MMP); cytotoxicity): 205 µM | EC10, PPARγ (M) [1]: 9.61 × 10^–7 M | EC10, linear transformed ([1]; dosing range all): 9.61E-07 | EC10, linear ([1]; dosing range all): 1.48E-06 | logEC10 ([1]; dosing range all): -6.02 | SR-ScorePPARγ [1]: 1.00 | EC10, PPARγ [1]: 0.961 µM | log(1/EC10) PPARγ [1]: 0.85 | Emax [1]: 20%

CC(C)(c1cc(Cl)c(O)c(Cl)c1)c1cc(Cl)c(O)c(Cl)c1 [TCBPA, 2,2',6,6'-Tetrachlorobisphenol A]
IC10, linear transformed (HEK293H (PPARγ); dosing range high): 5.23E-06 | IC10, linear (HEK293H (PPARγ); dosing range high): 1.84E-05 | logIC10 (HEK293H (PPARγ); dosing range high): -4.74 | IC10, linear transformed (HEK293H (PPARγ); dosing range low): 7.55E-07 | IC10, linear (HEK293H (PPARγ); dosing range low): no cytotoxicity | logIC10 (HEK293H (PPARγ); dosing range low): no cytotoxicity | IC10, HEK293, PPARγ (HEK293H (PPARγ)): 18.4 µM | IC10, linear transformed (HEK293T (ERα)): 6.86E-06 | IC10, linear (HEK293T (ERα)): 1.51E-05 | logIC10 (HEK293T (ERα)): -4.77 | IC10, HEK293, ERα (HEK293T (ERα)): 15.1 µM | IC10, linear transformed (H4IIe (AhR CALUX)): 9.01E-05 | IC10, linear (H4IIe (AhR CALUX)): no cytotoxicity | logIC10 (H4IIe (AhR CALUX)): -4.05 | IC10, H4IIe, AhR (H4IIe (AhR CALUX)): 90.1 µM | IC10, linear transformed (MCF7 (ARE/MMP); Bioassay ARE, cytotoxicity): 7.84E-05 | IC10, linear (MCF7 (ARE/MMP); [2]): 8.16E-05 | logIC10 (MCF7 (ARE/MMP); [3]): -4.11 | IC10, linear transformed (MCF7 (ARE/MMP); MMP bioassay cytotoxicity): 9.30E-05 | IC10, linear (MCF7 (ARE/MMP); [4]): 7.25E-05 | logIC10 (MCF7 (ARE/MMP); [5]): -4.03 | IC10, MCF7, ARE (MCF7 (ARE/MMP); cytotoxicity): 78.4 µM | IC10, MCF7, MMP (MCF7 (ARE/MMP); cytotoxicity): 93 µM | EC10, linear transformed ([1]; dosing range high): 4.16E-08 | EC10, linear ([1]; dosing range high): 7.40E-08 | logEC10 ([1]; dosing range high): -7.38 | EC10, linear transformed ([1]; dosing range low): 1.55E-07 | EC10, linear ([1]; dosing range low): 1.92E-07 | logEC10 ([1]; dosing range low): -6.81 | SR-ScorePPARγ [1]: 1.00 | EC10, PPARγ [1]: 0.155 µM | log(1/EC10) PPARγ [1]: 0.96 | Emax [1]: 32%
